Data: patent US5958978A, “Specific cyclooxygenase 2 inhibitor and anti-inflammatory agent” (Kabushiki Kaisha Yakult Honsha, priority 1995, dated 1999)
Like-named read-outs stand apart in the source and are kept apart here.

Key:
[1] = target: T1, cyclooxygenase 2 (Homo sapiens, UniProt P35354)
T1 sequence (P35354 18-604): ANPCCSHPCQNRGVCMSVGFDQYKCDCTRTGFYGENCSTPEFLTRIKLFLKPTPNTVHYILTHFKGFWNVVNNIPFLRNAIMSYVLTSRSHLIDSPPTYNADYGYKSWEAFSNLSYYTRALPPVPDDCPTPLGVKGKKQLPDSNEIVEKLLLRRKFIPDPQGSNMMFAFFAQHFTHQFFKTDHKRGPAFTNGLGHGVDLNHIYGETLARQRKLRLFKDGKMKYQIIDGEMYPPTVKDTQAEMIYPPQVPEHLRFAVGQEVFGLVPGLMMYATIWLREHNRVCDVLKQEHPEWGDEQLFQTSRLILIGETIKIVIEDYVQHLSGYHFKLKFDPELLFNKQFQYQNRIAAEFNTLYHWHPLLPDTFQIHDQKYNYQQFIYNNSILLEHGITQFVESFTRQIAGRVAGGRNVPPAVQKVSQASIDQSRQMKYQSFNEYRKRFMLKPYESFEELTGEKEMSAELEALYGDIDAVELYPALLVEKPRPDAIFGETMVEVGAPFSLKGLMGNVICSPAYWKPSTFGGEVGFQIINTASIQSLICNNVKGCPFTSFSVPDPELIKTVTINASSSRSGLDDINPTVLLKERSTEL
Experimental: (§1) (Specific Inhibitory Effect on Cyclooxygenase)
(§2) After the incubation, 2 μl of a 5 mM solution of arachidonic acid (dissolved in ethanol) were added (end concentration: 100 μM), followed by incubation for additional 5 minutes. After the incubation for 5 minutes, 10 μl of a 22 mM solution of ferrous chloride were added, and the resultant mixture was cooled down to 0° C. to stop the reaction. After stopping the reaction, the reaction mixture was centrifuged at 10,000×g for 5 minutes to determine the amount of prostaglandin E2 in the supernatant liquid thereof in accordance with the enzyme immunoassay. The cyclooxygenase-inhibiting effect of each test agent was determined by the average value of the amounts of prostaglandin E2 produced, which were obtained by repeating the above process twice, and the amount of prostaglandin E2 produced by using DMSO in place of the test agent to conduct the same treatment as described above.

[2] = tested on: Production of Prostaglandin E2 by Stimulation of Human Synovial Cell by IL-1β; assay: Effect on production of prostaglandin E2 by stimulation of human synovial cell by IL-1β; type: cell-based; conditions: for inhibition at 0.001 µM / inhibition at 0.01 µM / inhibition at 0.1 µM / inhibition at 1 µM / inhibition at 10 µM / inhibition at 100 µM: Synovial cell, human synovial cells, IL-1β, 22 hours, read-out: Percent inhibition of prostaglandin E2
Experimental: (Effect of 4'-Hydroxydiclofenac on Production of Prostaglandin E2 by Stimulation of Human Synovial Cell by IL-1β)
Synovial tissue obtained from a patient suffering from chronic articular rheumatism was placed in a Petri dish, cut and shredded, to which a 0.2% solution of collagenase was added. The mixture was left over for 2 hours under conditions of 5% CO2 and 37° C. An equiamount of a 0.25% solution of trypsin was further added, and the resultant mixture was left over for 2 hours. After cells isolated were collected and centrifuged (170 ×g, 10 minutes) to remove the supernatant liquid thereof, a medium [obtained by adding 10% FCS (fetal calf serum), 2 mM glutamine, 100 U/ml of penicillin, 100 μg/ml of streptomycin and 25 ng/ml of Fungizone to DMEM (Dulbecco modified minimum essential medium)] was added to the cells to wash them once. The cells were suspended in the medium, and the suspension was poured into a Petri dish and cultured under conditions of 5% CO2 and 37° C. Cells adhered to the bottom of the Petri dish were provided as synovial cells. The cells (1×10^5 cells/ml) were poured in 1-ml portions into wells of a 24-well plate and cultured under conditions of 5% CO2 and 37° C. After the cells were proliferated to an extent that they covered almost the entire surface of each well, the medium was changed to an SFM-101 medium (product of Nissui Seiyaku K.K.) containing 1% FCS. […] Furthermore, 10 μl (end concentration: 200 pg/ml) of a solution of IL-1βand 10 μl (end concentration: 10 μM) of arachidonic acid were added to conduct culture for 22 hours under conditions of 5% CO2 and 37° C. After the culture, the supernatant liquid thereof was collected and filtered through a membrane filter (pore size: 0.22 μm, MILLIPORE), thereby determining the amount of prostaglandin E2 in the filtrate in accordance with the enzyme immunoassay. The effect of each test agent on the production of prostaglandin E2 by the human synovial cells was determined by the average value of the amounts of prostaglandin E2 produced, which were obtained by repeating the above process 3 times, and the amount of prostaglandin E2 produced by using DMSO in place of the test agent to conduct the same treatment as described above.

[3] = target: T2, cyclooxygenase 1 (Ovis aries, UniProt P05979); assay: biochemical; conditions: for Inhibitory effect on cyclooxygenase 1 (in words): 0.01-100 μM
T2 sequence (P05979 25-600): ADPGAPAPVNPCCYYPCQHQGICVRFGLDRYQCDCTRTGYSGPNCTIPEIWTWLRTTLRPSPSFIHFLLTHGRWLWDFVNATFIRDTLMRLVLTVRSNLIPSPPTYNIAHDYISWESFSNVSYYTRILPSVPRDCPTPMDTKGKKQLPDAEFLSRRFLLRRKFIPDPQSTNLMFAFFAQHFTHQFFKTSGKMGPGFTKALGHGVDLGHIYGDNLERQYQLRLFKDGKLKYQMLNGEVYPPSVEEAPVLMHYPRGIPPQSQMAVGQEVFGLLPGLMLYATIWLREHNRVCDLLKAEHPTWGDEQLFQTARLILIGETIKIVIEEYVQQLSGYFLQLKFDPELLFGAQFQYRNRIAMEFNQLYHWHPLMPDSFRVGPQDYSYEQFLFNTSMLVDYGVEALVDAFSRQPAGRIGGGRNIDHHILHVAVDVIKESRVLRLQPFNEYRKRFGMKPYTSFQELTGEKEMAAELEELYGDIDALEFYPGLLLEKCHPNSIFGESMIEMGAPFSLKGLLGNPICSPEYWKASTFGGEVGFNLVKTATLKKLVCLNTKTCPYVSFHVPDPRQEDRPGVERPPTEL
Experimental: as §1, §2

[4] = tested on: Production of Thromboxane B2 in Platelet; assay: Effect on production of thromboxane B2 in platelet; type: cell-based, rabbit; conditions: for inhibitory effect on the production of thromboxane B2 (in words): 0.001-100 μM; for inhibition at 0.001 µM / inhibition at 0.01 µM / inhibition at 0.1 µM / inhibition at 1 µM / inhibition at 10 µM / inhibition at 100 µM: Oryctolagus cuniculus, Platelet, rabbit platelets, read-out: Percent inhibition of thromboxane B2
Experimental: (Effect of 4'-Hydroxydiclofenac on Production of Thromboxane B2 in Platelet)
Fresh blood [adding 1 volume of ACD (acid-citrate dextrose; consisting of 65 mM citric acid, 85 mM sodium citrate and 110 mM glucose) to 9 volumes of the blood] collected from the heart of a rabbit under Nembutal anesthesia was centrifuged at 200 ×g for 10 minutes to collect the supernatant liquid thereof. The supernatant liquid was centrifuged at 700 ×g for 10 minutes, and precipitated platelets were suspended in an isotonic trishydrochloric acid buffer solution [50 mM tris(hydroxymethyl)aminomethane, 150 mM NaCl, 1 mM EDTA (ethylenediaminetetraacetic acid) and 5 mM glucose; pH: 7.2]. The suspension was further centrifuged at 700 ×g for 10 minutes and washed. […] The thus-adjusted platelet suspension was poured in 1-ml portions into test tubes. […] After the incubation, 10 μl (end concentration: 2 mM) of 200 mM CaCl2 and 5 μl (end concentration: 5 μM) of 1 mM arachidonic acid were added, followed by incubation for additional 5 minutes. After the incubation, the test tube was transferred to an ice bath to stop the reaction. The test tube was centrifuged at 1,500 ×g and 4° C. for 10 minutes. After the supernatant liquid thereof was filtered through a membrane filter (pore size: 0.22 μm, MILLIPORE), the amount of thromboxane B2 in the filtrate was determined in accordance with the enzyme immunoassay. The effect of each test agent on the production of thromboxane B2 in the platelet was determined by the average value of the amounts of thromboxane B2 produced, which were obtained by repeating the above process 3 times, and the amount of thromboxane B2 produced by using DMSO in place of the test agent to conduct the same treatment as described above.

[5] = read-out: Percent inhibition of cyclooxygenase 1

**Q.** Which “Percent inhibition of cyclooxygenase 2” value ([1]; 0.01 μM) does the source give for O=C(O)Cc1ccccc1Nc1c(Cl)cc(O)cc1Cl [4'-Hydroxydiclofenac, 2-(2,6-dichloro-4-hydroxyanilino)phenylacetic acid] here?
**A.** 21%

**Q.** And the “Percent inhibition of cyclooxygenase 2” value ([1]; 0.1 μM)?
**A.** 18%

**Q.** And the “Percent inhibition of cyclooxygenase 2” value ([1]; 1 μM)?
**A.** 22%

**Q.** And the “Percent inhibition of cyclooxygenase 2” value ([1]; 10 μM)?
**A.** 82%

**Q.** What about the “Percent inhibition of cyclooxygenase 2” value ([1]; 100 μM) of the same molecule?
**A.** 90%

**Q.** What about the “Inhibitory effect on cyclooxygenase 2 (in words)” value ([1]; 0.01-100 μM) of the same molecule?
**A.** only an inhibitory effect on the cyclooxygenase 2 activity is recognized

**Q.** And the “inhibitory effect on prostaglandin E2 (in words)” value ([2]; 0.001-100 μM, compared with indomethacin)?
**A.** almost comparable to indomethacin

**Q.** And the inhibition at 0.001 µM [2]?
**A.** -3%

**Q.** What about the inhibition at 0.01 µM [2] of the same molecule?
**A.** 0%

**Q.** What about the inhibition at 0.1 µM [2] of the same molecule?
**A.** 35%

**Q.** And the inhibition at 1 µM [2]?
**A.** 100%

**Q.** And the inhibition at 10 µM [2]?
**A.** 100%

**Q.** And the inhibition at 100 µM [2]?
**A.** 100%

**Q.** And the “Percent inhibition of cyclooxygenase 1” value ([3]; 0.01 μM)?
**A.** 0%

**Q.** What about the “Percent inhibition of cyclooxygenase 1” value ([3]; 0.1 μM) of the same molecule?
**A.** 0%

**Q.** And the “Percent inhibition of cyclooxygenase 1” value ([3]; 1 μM)?
**A.** 13%

**Q.** What about the “Percent inhibition of cyclooxygenase 1” value ([3]; 10 μM) of the same molecule?
**A.** 3%

**Q.** And the “Percent inhibition of cyclooxygenase 1” value ([3]; 100 μM)?
**A.** 15%

**Q.** And the “Inhibitory effect on cyclooxygenase 1 (in words)” value [3]?
**A.** no inhibitory effect on cyclooxygenase 1 is recognized

**Q.** And the “inhibitory effect on the production of thromboxane B2 (in words)” value [4]?
**A.** clearly weak compared with indomethacin

**Q.** What about the inhibition at 0.001 µM [4] of the same molecule?
**A.** -25%

**Q.** And the inhibition at 0.01 µM [4]?
**A.** -25%

**Q.** And the inhibition at 0.1 µM [4]?
**A.** 0%

**Q.** What about the inhibition at 1 µM [4] of the same molecule?
**A.** 7%

**Q.** What about the inhibition at 10 µM [4] of the same molecule?
**A.** 15%

**Q.** What about the inhibition at 100 µM [4] of the same molecule?
**A.** 77%

**Q.** Which inhibition at 0.001 µM [2] does the source give for O=C(O)Cc1ccccc1Nc1c(Cl)cccc1Cl [Diclofenac] here?
**A.** 14%

**Q.** And the inhibition at 0.01 µM [2]?
**A.** 61%

**Q.** What about the inhibition at 0.1 µM [2] of the same molecule?
**A.** 99%

**Q.** What about the inhibition at 1 µM [2] of the same molecule?
**A.** 100%

**Q.** And the inhibition at 10 µM [2]?
**A.** 100%

**Q.** And the inhibition at 100 µM [2]?
**A.** 100%

**Q.** What about the “Inhibitory effect on cyclooxygenase 1 (in words)” value [3] of the same molecule?
**A.** Inhibitory effects on cyclooxygenase 1 and cyclooxygenase 2 are recognized

**Q.** And the inhibition at 0.01 µM [3, 5]?
**A.** 25%

**Q.** And the inhibition at 0.1 µM [3, 5]?
**A.** 25%

**Q.** What about the inhibition at 1 µM [3, 5] of the same molecule?
**A.** 38%

**Q.** What about the inhibition at 10 µM [3, 5] of the same molecule?
**A.** 57%

**Q.** And the inhibition at 100 µM [3, 5]?
**A.** 87%

**Q.** What about the “inhibitory effect on the production of thromboxane B2 (in words)” value [4] of the same molecule?
**A.** an inhibitory effect on the production of thromboxane B2 is recognized

**Q.** What about the inhibition at 0.001 µM [4] of the same molecule?
**A.** 46%

**Q.** What about the inhibition at 0.01 µM [4] of the same molecule?
**A.** 70%

**Q.** And the inhibition at 0.1 µM [4]?
**A.** 68%

**Q.** And the inhibition at 1 µM [4]?
**A.** 77%

**Q.** What about the inhibition at 10 µM [4] of the same molecule?
**A.** 93%

**Q.** And the inhibition at 100 µM [4]?
**A.** 99%

**Q.** What does the source list for COc1ccc2c(c1)c(CC(=O)O)c(C)n2C(=O)c1ccc(Cl)cc1 [Indomethacin]?
**A.** inhibition at 0.001 µM [2]: -3%; inhibition at 0.01 µM [2]: 5%; inhibition at 0.1 µM [2]: 62%; inhibition at 1 µM [2]: 100%; inhibition at 10 µM [2]: 100%; inhibition at 100 µM [2]: 100%; inhibitory effect on the production of thromboxane B2 (in words) [4]: an inhibitory effect on the production of thromboxane B2 is recognized; inhibition at 0.001 µM [4]: 2%; inhibition at 0.01 µM [4]: 50%; inhibition at 0.1 µM [4]: 76%; inhibition at 1 µM [4]: 77%; inhibition at 10 µM [4]: 78%; inhibition at 100 µM [4]: 78%
